Experimental data: ChEMBL document CHEMBL5365467 (J Med Chem, 2023)

How the values were obtained:
[1] = Metabolic stability in rat plasma assessed as parent compound remaining measured after 120 mins by LC-MS/MS analysis; type: ADME, cell-free; conditions: read-out: Stability
[2] = Metabolic stability in dog hepatocyte assessed as half life measured upto 120 mins by LC-MS/MS analysis; type: ADME, cell-based, Canis lupus familiaris; conditions: hepatocytes
[3] = Metabolic stability in dog plasma assessed as half life measured after 2 hrs by LC-MS/MS analysis; type: ADME, cell-free, Canis lupus familiaris
[4] = Metabolic stability in mouse liver microsome assessed as half life measured upto 45 mins in presence of NADPH by LC-MS/MS analysis; type: ADME; conditions: liver microsomes
[5] = Metabolic stability in human liver microsome assessed as half life measured upto 45 mins in presence of NADPH by LC-MS/MS analysis; type: ADME; conditions: liver microsomes
VCaP [6] = assay: Antitumor activity against human VCaP cells xenografted in CB17-SCID mouse assessed as tumor growth inhibition at 20 mg/kg, po administered for 21 days; conditions: 504 h, read-out: TGI
[7] = biological target: Protein cereblon/Androgen receptor (Homo sapiens, UniProt P10275+Q96SW2, L702H/T878A); conditions: mda-pca-2b
Sequence of Protein cereblon/Androgen receptor (P10275 whole entry L702H/T878A, stated change not applied): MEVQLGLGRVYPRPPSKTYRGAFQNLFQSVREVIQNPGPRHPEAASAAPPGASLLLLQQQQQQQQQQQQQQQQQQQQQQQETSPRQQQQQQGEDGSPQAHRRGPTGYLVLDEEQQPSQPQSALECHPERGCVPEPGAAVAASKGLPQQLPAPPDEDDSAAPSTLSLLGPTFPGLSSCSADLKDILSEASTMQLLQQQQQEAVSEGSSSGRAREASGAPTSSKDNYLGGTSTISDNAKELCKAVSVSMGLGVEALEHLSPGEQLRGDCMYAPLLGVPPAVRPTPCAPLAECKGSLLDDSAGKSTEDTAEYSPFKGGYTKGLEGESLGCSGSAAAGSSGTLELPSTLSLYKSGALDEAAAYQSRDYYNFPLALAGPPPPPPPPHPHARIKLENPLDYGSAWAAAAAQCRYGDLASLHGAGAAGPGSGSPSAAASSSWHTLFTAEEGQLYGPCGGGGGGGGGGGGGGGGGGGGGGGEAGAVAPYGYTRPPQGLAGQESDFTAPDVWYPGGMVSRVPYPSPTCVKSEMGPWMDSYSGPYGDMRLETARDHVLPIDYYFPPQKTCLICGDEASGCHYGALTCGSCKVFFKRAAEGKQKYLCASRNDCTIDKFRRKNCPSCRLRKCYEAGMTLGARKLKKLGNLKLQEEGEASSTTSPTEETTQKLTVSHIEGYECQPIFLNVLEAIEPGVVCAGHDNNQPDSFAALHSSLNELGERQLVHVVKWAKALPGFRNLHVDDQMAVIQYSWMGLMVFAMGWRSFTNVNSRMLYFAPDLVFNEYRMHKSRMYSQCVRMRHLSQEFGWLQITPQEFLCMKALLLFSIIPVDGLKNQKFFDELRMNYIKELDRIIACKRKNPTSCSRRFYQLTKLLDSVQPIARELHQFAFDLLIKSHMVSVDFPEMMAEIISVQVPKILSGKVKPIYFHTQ
Sequence of Protein cereblon/Androgen receptor (Q96SW2 whole entry, stated change not applied): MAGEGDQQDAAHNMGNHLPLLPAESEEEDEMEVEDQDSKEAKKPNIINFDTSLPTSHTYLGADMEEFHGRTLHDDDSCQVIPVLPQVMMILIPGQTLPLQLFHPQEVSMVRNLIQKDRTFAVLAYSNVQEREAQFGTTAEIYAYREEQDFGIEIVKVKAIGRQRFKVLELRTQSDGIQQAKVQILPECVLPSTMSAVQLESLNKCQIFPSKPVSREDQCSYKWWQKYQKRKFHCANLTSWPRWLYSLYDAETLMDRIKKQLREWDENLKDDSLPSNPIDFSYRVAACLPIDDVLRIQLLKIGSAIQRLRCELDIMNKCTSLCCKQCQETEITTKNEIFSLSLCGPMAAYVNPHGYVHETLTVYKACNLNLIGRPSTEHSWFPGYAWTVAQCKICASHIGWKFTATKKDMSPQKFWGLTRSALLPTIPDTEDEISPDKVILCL

[8] = Metabolic stability in non human primate liver microsome assessed as parent compound remaining measured at 120 mins in presence of NADPH by LC-MS/MS analysis; type: ADME; conditions: primates, liver microsomes, read-out: Stability
[9] = Clearance in Sprague-Dawley rat at 2 mg/kg, iv measured upto 24 hrs by LC-MS/MS analysis; conditions: in vivo
[10] = Metabolic stability in human hepatocyte assessed as half life measured upto 120 mins by LC-MS/MS analysis; type: ADME, cell-based; conditions: hepatocytes
[11] = Metabolic stability in human liver microsome assessed as parent compound remaining measured at 120 mins in presence of NADPH by LC-MS/MS analysis; type: ADME; conditions: liver microsomes, read-out: Stability
[12] = Half life in non human primate at 2 mg/kg, po measured upto 24 hrs by LC-MS/MS analysis; type: ADME, organism-based; conditions: primates, in vivo
[13] = Metabolic stability in dog liver microsome assessed as parent compound remaining measured at 120 mins in presence of NADPH by LC-MS/MS analysis; type: ADME, Canis lupus familiaris; conditions: liver microsomes, read-out: Stability
VCaP [14] = assay: Growth inhibition in human VCaP cells
[15] = Cmax in ICR mouse at 5 mg/kg, po measured upto 24 hrs by LC-MS/MS analysis; type: ADME, organism-based; design: time < 24 hrs, dose 5 mg/kg, route po; conditions: in vivo
[16] = Cmax in Beagle dog at 10 mg/kg, po measured upto 24 hrs by LC-MS/MS analysis; type: ADME, organism-based, Canis lupus familiaris; design: time < 24 hrs, dose 10 mg/kg, route po; conditions: in vivo
[17] = Oral bioavailability in non human primate at 2 mg/kg measured upto 24 hrs by LC-MS/MS analysis; type: ADME, organism-based; conditions: primates, in vivo
[18] = Clearance in ICR mouse at 2 mg/kg, iv measured upto 24 hrs by LC-MS/MS analysis; type: ADME, organism-based; conditions: in vivo
[19] = Metabolic stability in dog liver microsome assessed as half life measured upto 45 mins in presence of NADPH by LC-MS/MS analysis; type: ADME, Canis lupus familiaris; conditions: liver microsomes
[20] = Oral bioavailability in Beagle dog at 10 mg/kg measured upto 24 hrs by LC-MS/MS analysis; type: ADME, organism-based, Canis lupus familiaris; conditions: in vivo
[21] = Metabolic stability in mouse plasma assessed as parent compound remaining measured after 120 mins by LC-MS/MS analysis; type: ADME, cell-free; conditions: read-out: Stability
[22] = Half life in ICR mouse at 2 mg/kg, iv measured upto 24 hrs by LC-MS/MS analysis; type: ADME, organism-based; conditions: in vivo
[23] = Oral bioavailability in ICR mouse at 5 mg/kg measured upto 24 hrs by LC-MS/MS analysis; type: ADME, organism-based; conditions: in vivo
[24] = Tmax in non human primate at 2 mg/kg, po measured upto 24 hrs by LC-MS/MS analysis; type: ADME, organism-based; conditions: primates, in vivo
VCaP [25] = assay: Antitumor activity against human VCaP cells xenografted in CB17-SCID mouse assessed as tumor growth inhibition at 10 mg/kg, po administered for 21 days; type: functional; conditions: 504 h, time 21 day, read-out: TGI

In the case of `C[C@H]1CC2(CCN(c3ccc(C(=O)N4CCC(CN5Cc6cc7c(cc6C5)C(=O)N(C5CCC(=O)NC5=O)C7=O)CC4)cc3)CC2)CN1c1ccc(C#N)c(Cl)c1` (stereo not given in full), the remaining at 2 h [1] is reported as 52%, the half-life [2] is reported as > 2 h and the half-life [3] is reported as > 2 h. The half-life at […] [4] was > 1 h, the half-life at […] [5] was > 1 h and the inhibition in vivo at 20 mg/kg (VCaP [6]) was 68%. For the same compound, the DC50 [7] was 8 nM, the remaining at 2 h [8] was 82% and the clearance at 24 h [9] was 6 mL/min/kg. The half-life [10] was > 2 h, the remaining at 2 h [11] was 84% and the half-life [12] was 9.62 h. For the same compound, the remaining at 2 h [13] was 87%, the IC50 (VCaP [14]) was 11.5 nM and the Cmax [15] was 9120 ng/mL. The Cmax [16] was 1030 ng/mL, the bioavailability [17] was 99% and the clearance [18] was 0.667 mL/min/kg. For the same compound, the half-life at […] [19] was > 1 h, the bioavailability [20] was 31% and the remaining at 2 h [21] was 62%. It also gave a half-life [22] of 4.3 h, a bioavailability [23] of 67% and a Tmax [24] of 3.33 h. The inhibition in vivo at 10 mg/kg (VCaP [25]) was 50%.
